Key:
Test in all cases: selectivity profiling in a panel of 340 wild-type kinases (Reaction Biology Europe)
Format in all cases: binding
[1] = target: T1, 340 wild-type kinases (Homo sapiens, UniProt O43318); settings: MAP3K7/MAP3K7IP1; 0.2 µM; read-out: residual activity
T1 construct: purchased Reaction Biology Europe
T1 sequence (O43318 1-606): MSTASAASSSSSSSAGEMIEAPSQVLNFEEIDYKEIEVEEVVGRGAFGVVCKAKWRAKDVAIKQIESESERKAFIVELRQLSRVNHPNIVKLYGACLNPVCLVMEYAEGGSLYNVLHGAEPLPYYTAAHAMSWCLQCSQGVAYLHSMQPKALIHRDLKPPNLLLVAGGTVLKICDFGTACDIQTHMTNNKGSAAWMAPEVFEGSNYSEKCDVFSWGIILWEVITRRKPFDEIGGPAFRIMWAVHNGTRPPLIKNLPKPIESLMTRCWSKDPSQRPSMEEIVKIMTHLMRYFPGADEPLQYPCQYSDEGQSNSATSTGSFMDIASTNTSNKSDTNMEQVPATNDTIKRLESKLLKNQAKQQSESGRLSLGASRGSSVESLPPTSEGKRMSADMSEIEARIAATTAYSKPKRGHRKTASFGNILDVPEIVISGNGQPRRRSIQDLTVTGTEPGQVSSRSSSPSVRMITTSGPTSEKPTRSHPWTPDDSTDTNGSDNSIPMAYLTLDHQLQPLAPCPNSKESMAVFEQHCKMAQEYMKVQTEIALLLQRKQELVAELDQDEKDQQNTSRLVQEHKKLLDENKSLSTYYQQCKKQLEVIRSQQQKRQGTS
Text: (§1) Potential interactions between 2015 and 340 wild-type kinases were checked by means of a competition binding assay performed by Reaction Biology Europe (Supplementary Table 15).

[2] = target: T2, 340 wild-type kinases (Homo sapiens, UniProt Q9UPE1); settings: STK23; 1 µM; read-out: residual activity
T2 construct: purchased Reaction Biology Europe
Text: as §1

[3] = target: T3, 340 wild-type kinases (Homo sapiens, UniProt Q8NG66); settings: 0.2 µM 2015; read-out: NEK11 residual activity
T3 construct: purchased Reaction Biology Europe
T3 sequence (Q8NG66 1-645): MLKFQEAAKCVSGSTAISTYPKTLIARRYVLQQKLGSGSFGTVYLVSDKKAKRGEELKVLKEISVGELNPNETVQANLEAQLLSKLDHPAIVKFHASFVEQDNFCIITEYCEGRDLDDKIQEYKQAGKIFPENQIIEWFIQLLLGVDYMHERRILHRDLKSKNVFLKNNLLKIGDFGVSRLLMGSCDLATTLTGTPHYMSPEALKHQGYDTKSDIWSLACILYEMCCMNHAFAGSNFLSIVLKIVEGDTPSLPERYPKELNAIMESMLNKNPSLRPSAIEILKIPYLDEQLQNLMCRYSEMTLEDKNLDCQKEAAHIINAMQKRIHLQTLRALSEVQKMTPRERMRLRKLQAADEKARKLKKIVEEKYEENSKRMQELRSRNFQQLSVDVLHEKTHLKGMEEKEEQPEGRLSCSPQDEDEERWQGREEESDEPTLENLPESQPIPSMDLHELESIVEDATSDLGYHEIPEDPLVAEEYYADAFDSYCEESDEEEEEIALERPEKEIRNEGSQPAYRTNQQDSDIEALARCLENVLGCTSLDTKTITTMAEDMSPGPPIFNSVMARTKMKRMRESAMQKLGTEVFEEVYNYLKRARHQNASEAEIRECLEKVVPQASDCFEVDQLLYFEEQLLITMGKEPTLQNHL
Text: as §1

T2 sequence (Q9UPE1 whole entry): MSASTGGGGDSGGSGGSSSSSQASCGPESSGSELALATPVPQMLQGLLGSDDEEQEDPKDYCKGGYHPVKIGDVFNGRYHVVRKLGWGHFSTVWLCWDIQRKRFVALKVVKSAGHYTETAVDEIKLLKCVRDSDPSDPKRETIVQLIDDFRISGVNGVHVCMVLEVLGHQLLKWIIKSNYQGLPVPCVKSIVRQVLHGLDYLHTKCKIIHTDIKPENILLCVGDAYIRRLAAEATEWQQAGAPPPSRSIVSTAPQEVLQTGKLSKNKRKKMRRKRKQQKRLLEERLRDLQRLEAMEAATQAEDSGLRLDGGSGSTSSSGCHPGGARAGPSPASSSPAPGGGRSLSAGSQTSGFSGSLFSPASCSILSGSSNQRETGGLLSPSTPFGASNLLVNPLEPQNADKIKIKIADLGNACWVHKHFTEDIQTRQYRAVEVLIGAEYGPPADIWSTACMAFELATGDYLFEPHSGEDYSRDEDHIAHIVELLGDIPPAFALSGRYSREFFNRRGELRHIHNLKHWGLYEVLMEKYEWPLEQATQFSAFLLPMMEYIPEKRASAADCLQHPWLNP

## CNC(=O)c1ccc2c(c1)C(=O)c1ccc(Nc3ccc(F)c(NC(=O)C4CC4)c3)cc1CC2 [Compound 2015]
[1]
  remaining activity at 0.2 µM: 96.8%
[2]
  remaining activity at 1 µM: 94.1%
[3]
  remaining activity at 0.2 µM: 91.3%
